# Measurements published in patent US20100099614A1, “Antimicrobial Peptides and Methods of Use” (priority 2008, published 2010).
# Like-named read-outs stand apart in the source and are kept apart here.
# Tested on: multiple drug resistant M. tuberculosis strain vertulo
# Settings: for Anti-tuberculosis activity to multi-drug resistant strain (vertulo) Fold (compared to D4): relative to D4
structure (smiles),measurement,setting,value
CC[C@@H](C)[C@@H](NC(=O)[C@@H](C)NC(=O)[C@@H](CCCCN)NC(=O)[C@@H](CC(C)C)NC(=O)[C@@H](C)NC(=O)[C@H](NC(=O)[C@@H](Cc1c[nH]cn1)NC(=O)[C@@H](CC(C)C)NC(=O)[C@H](NC(=O)[C@H](NC(=O)[C@@H](CCCCN)NC(=O)[C@@H](CCCCN)NC(=O)[C@@H](C)NC(=O)[C@@H](CO)NC(=O)[C@@H](CCCCN)NC(=O)[C@@H](Cc1ccccc1)NC(=O)[C@H](NC(=O)[C@@H](CCCCN)NC(=O)[C@@H](CC(C)C)NC(=O)[C@@H](Cc1ccccc1)NC(=O)[C@@H](CO)NC(=O)[C@@H](CCCCN)NC(=O)[C@@H](Cc1c[nH]c2ccccc12)NC(=O)[C@@H](CCCCN)NC(C)=O)[C@H](C)O)[C@H](C)O)C(C)C)[C@H](C)O)C(=O)N[C@H](CO)C(=O)N[C@H](CO)C(N)=O [D1],Anti-tuberculosis activity to multi-drug resistant strain (vertulo) MIC,,57 mg/L
same,Anti-tuberculosis activity to multi-drug resistant strain (vertulo) MIC,multiple drug resistant strain vertulo,19.1 µM
same,Anti-tuberculosis activity to multi-drug resistant strain (vertulo) Fold (compared to D4),,>8.4 fold
CC[C@@H](C)[C@@H](NC(=O)[C@@H](CC(C)C)NC(=O)[C@@H](CCCCN)NC(=O)[C@@H](CC(C)C)NC(=O)[C@@H](CC(C)C)NC(=O)[C@H](NC(=O)[C@@H](Cc1c[nH]cn1)NC(=O)[C@@H](CC(C)C)NC(=O)[C@@H](CCCCN)NC(=O)[C@H](NC(=O)[C@@H](CCCCN)NC(=O)[C@@H](CCCCN)NC(=O)[C@@H](CC(C)C)NC(=O)[C@@H](CO)NC(=O)[C@@H](CCCCN)NC(=O)[C@@H](Cc1ccccc1)NC(=O)[C@H](NC(=O)[C@@H](CCCCN)NC(=O)[C@@H](CC(C)C)NC(=O)[C@@H](Cc1ccccc1)NC(=O)[C@@H](CO)NC(=O)[C@@H](CCCCN)NC(=O)[C@@H](Cc1c[nH]c2ccccc12)NC(=O)[C@@H](CCCCN)NC(C)=O)[C@H](C)O)[C@H](C)O)[C@H](C)O)C(=O)N[C@H](CO)C(=O)N[C@H](CO)C(N)=O [D5],Anti-tuberculosis activity to multi-drug resistant strain (vertulo) Fold (compared to D4),,>10.3 fold
